One assay concerns S68 antibody. Briefly: Peptide blocking of S68 antibody binding to serum protein (specificity of S68 antibody). Also on record: species or system rabbit. As to conditions: peptide 0, 0.1, 1, and 10 µg/mL; sera of sepsis patients and normal donors. The source says: For confirming the specificity of S68 antibody prepared in Example 1, the inventors studied whether blocking occurs by a peptide by the same assay as that of Example 3-(3). That is, S68 peptide (amino acid sequence at positions 53 to 68), synthetic polypeptide prepared by the same way as that of Example 1 (amino acid sequence at positions 53 to 58, amino acid sequence at positions 57 to 62, and amino acid sequence at positions 59 to 64), or negative control peptide (Cys Glu Gly Asn Gly Asn Asn Phe Glu Ser Arg Glu Ala Cys) was diluted to 0, 0.1, 1, and 10 µg/mL and 25 µL of each diluted solution was added to 25 µL of each of 50-fold diluted solutions of the sera obtained from patients suffering from sepsis and the sera of normal donors to initiate a competitive reaction by mixing with S68 antibody. After that, the levels of the soluble protein bound to S68 antibody without inhibition by any peptide were determined.
The above result confirmed that a protein being detected in blood by S68 antibody is specifically recognized by S68 antibody. In addition, the result also confirmed that the sequence recognized by the antibody requires a length of at least 7 amino acids because the inhibition can not be attained by three kinds of synthetic peptides (the number of amino acids: 6) corresponding to the partial peptides of S68 peptide.

Assay [1] in a line: Measurement of chemically synthesized peptide with kit of Example 7-(3). Format: binding. The source says: A peptide synthesizer ABI433A (Applied) was used and amino acid columns were then aligned according to the amino acid sequences to carry out automatic synthesis. The synthesized peptide was removed from a resin by the conventional method and then recovered by ether precipitation. The resultant peptide was re-dissolved in distilled water and then freeze-dried. After the dissolution, the crude peptide thus obtained was eluted through a linear gradient of 5-70% acetonitrile by the use of C18 reversed phase HPLC (CAPCELL-PAK, Shiseido Co., Ltd.). Consequently, a fraction containing a peptide of interest was collected. The collected fraction was freeze-dried and provided as a purified peptide. The purified peptide was dissolved in the diluent described in Example 7-(12) and then the solution was subjected to the measurement with the kit described in Example 7-(3).

Ends that are not written are not given here.

Regarding “S68 peptide: peptide having the sequence of SEQ ID NO: 2, positions 53 to 68 of SEQ ID NO: 3 (RVDADADPRQYADTVK)”, the “inhibition of the binding between S68 antibody and the soluble protein in serum” value in the assay with S68 antibody was “inhibited”.
On to “CEGNGNNFESREAC (cysteine pairing not given here) [negative control peptide, reference compound]”, for which the “inhibition of the binding between S68 antibody and the soluble protein in serum” value with S68 antibody is on record as “not inhibited”.

B1: sCD14(1-70): chemically synthesized soluble polypeptide having amino acids at positions 1 to 70 on the N-terminal of human CD14 (peptide)
peptide: TTPEPCELDDEDFRCVCNFSEPQPDWSEAFQCVSAVEVEIHAGGLNLEPFLKRVDADADPRQYADTVKAL
Take B1: the “reaction with the kit described in Example 7-(3)” value in assay [1] is on record as “strongly reacted”.
